According to patent US10137102B2, “Oligomeric forms of 3-hydroxybutyrate” (Oulun Yliopisto, priority 2014, dated 2018):

Assays:
Shoot tips of Scots pine = test: Viability assay on pine shoot tips; type: cell-based, Pinus sylvestris L.; conditions: FIG. 3; medium including molecules (1) and (2); after five weeks; control shoot tip dead
Protocol: Viability Assay on Pine Shoot Tips Shoot tips (n=9-13) of Scots pine (Pinus sylvestris L.) were collected from young (>10 years) trees and surface-sterilized in 70% ethanol for 1 min and in 6% Ca(ClO)2 for 20 min, and rinsed thoroughly three times with sterile water. After rinsing in sterile water, the shoot tips (buds) were aseptically peeled in a laminar flow hood and placed on the media. The pine shoot tips were grown in 8/16 h photoperiod at +25±1° C. in the presence and absence of molecules of general formula I, wherein n is from 2 to 10. The viability of the pine tissue was assessed for up to 6 weeks visually (FIG. 3) and by 1% (w/v) acetocarmine staining. The viability on each fraction was recorded as percentage of live buds. The experiment was twice with each oligomer (mono- to decamer) on each Petri plate containing 18-31 pine shoot tips.

[1] = HOSC assay (fluorometric .OH scavenging capacity assay); type: biochemical; conditions: for hydroxyl radical scavenging activity (in words) / .OH scavengers, times better than ascorbic acid / .OH scavengers, times better than glutathione: FIG. 1; for hydroxyl radical scavenging activity (in words): compared with L-ascorbic acid, L-glutathione and 3-hydroxybutyric acid; for .OH scavengers, times better than ascorbic acid / .OH scavengers, times better than glutathione: HOSC assay under Fenton's reaction, against Trolox; for .OH scavengers, times better than ascorbic acid: comparator ascorbic acid; for .OH scavengers, times better than glutathione: comparator glutathione; for scavenging capacity, times better compared to 3-HB monomer, 3-hydroxybutyric acid (3-HBA): HOSC assay, comparator commercial 3-HBA
Protocol: HOSC Assay (Fluorometric .OH Scavenging Capacity Assay)
Assay reactions were prepared according to Moore et al. (2006) and analyzed in black 96-well polystyrene plates (FluoroNunc, Thermo Scientific) with a Victor3 multilabel plate reader (PerkinElmer, Turku, Finland). Each reaction mixture contained 170 μl of 9.28×10^−8 M fluorescein (FL) prepared in 75 mM sodium phosphate buffer (pH 7.4), 30 μl of blank or sample or standard, 40 μl of 0.1990 M H2O2, and 60 μl of 3.43 mM FeCl3, pipetted to the 96-well plate in same order. Trolox standards (20, 40, 60, 80, and 100 μM), control solutions of glutathione, vitamin C, 3-HB monomer (3-hydroxybutyric acid, 3-HBA) (Sigma-Aldrich, St. Louis, Mo.), and the 3-HB oligomer samples were freshly prepared in 50% acetone for each assay. Each reaction was pipetted onto the 96-well plate in triplicate. Fluorescence was measured at the excitation wavelength of 485 nm and the emission wavelength of 535 nm. Read time for each well was 0.1 s, and each plate was read once per minute for 3 h. Based on the area under the curve (AUC) of the Trolox concentrations and the net area under the fluorescein decay curve (Ou et al. 2001), the relative HOSC values were calculated by using the regression equation for the pure compounds. Values were expressed as Trolox equivalents (TE), where one micromole of TE corresponds to one micromole of sample. The experiment was repeated three times.
Calculation of Area Under Curve (AUC) Values: AUC=0.5+f1/f0+f2/f0+f3/f0+ . . . +fi−1/f0+0.5(fi/f0) f0=the initial fluorescence reading at 0 min fi=the final fluorescence reading Calculation of Relative HOSC Values for Pure Compounds: [(AUCsample−AUCblank)/(AUCTrolox−AUCblank)]×(Molarity of Trolox/Molarity of sample)] Iron-Catalyzed Hydroxyl Radical Formation by Haber-Weiss Driven Fenton Reaction (Liochev 1999, Kehrer 2000): Fe^3++O.^2−→Fe^2++O2 (1) Fe^2++H2O2→Fe^3++OH^−+OH.(Fenton reaction) (2)
The Net Reaction: O.^2−+H2O2→O2+OH^−+OH. (3)
Fluorometric .OH scavenging capacity (HOSC) assays for 3-HB mono-, di- and trimers (molecules of general formula 1, wherein n is 1 and 2, respectively), along with glutathione and ascorbic acid was performed. […] Oligomers of 3-HB having a chain length longer than four units had low antioxidant activity.

[2] = tested on: yeast GSH pathway deletion mutants gsh1Δ and gsh2Δ; type: cell-based, S. cerevisiae; conditions: FIG. 2, 2.5 mM H2O2, 65 μM FeCl3
Protocol: Yeast strains (gsh1Δ (YJL101c) and gsh2Δ (YOL049w); EUROSCARF) were streaked from glycerol stocks onto YEPD agar plates (1% w/v Bacto yeast extract; 2% w/v Bacto peptone; 2% w/v D-glucose; 2% w/v agar) and incubated at +30° C. for 48 h. Yeast pre-cultures were inoculated from the plates and grown in liquid SG minimal medium (0.67% w/v yeast nitrogen base without amino acids; 2% w/v glucose with appropriate supplements: uracil, 0.02 mg/ml; amino acids, 0.03 mg/ml) at +30° C. in orbital shaker with 180 rpm to stationary phase (1.0-1.2 OD600). Growth was measured spectrophotometrically at 600 nm (OD600) and the cell densities were adjusted to 1.0 OD600 before inoculation of the final density of 0.25 OD600 into each assay reaction.
To validate the alleviation of oxidative stress in living cells and to identify the cellular target proteins for hydroxyl radical scavenging in eukaryotic cells, a yeast deletion mutant bioassay was developed on the basis of HOSC assay (Moore et al. 2006). Hydroxyl radicals were generated under physiological pH (7.4) in Fenton-like Fe^3+/H2O2 reaction. The original assay settings were adjusted for yeast cells in phosphate buffered SG medium, and the pH and O2 levels were monitored by SENBIT® system (Vasala et al. 2006). The concentration of hydrogen peroxide was optimized to a sub-lethal level (2.5 mM) and the reaction was supplemented with appropriate amount of FeCl3 (0.0646 mM) to produce a constant flux of .OH radicals.
The total reaction volume was down-scaled to 1 ml, which made the assay suitable for the natural products low in quantity. […]
All treatments were pipetted in triplicate, and the experiment was repeated three times. Cell growth was monitored at +30° C. for 72 hours and Petri plates were scanned digitally to high-quality computer images after 48 and 72 hours. Hydroxyl radical-induced stress and the alleviation of stress by antioxidant compounds in various deletion mutant strains of S. cerevisiae were evaluated visually.

## COC(=O)CC(C)OC(=O)CC(C)O (centres unmarked) [Compound 1, 3-hydroxybutyrate methyl ester dimer]
Shoot tips of Scots pine
  state of Scots pine shoot tip (in words): alive
[1]
  hydroxyl radical scavenging activity (in words): significantly better
  .OH scavengers, times better than ascorbic acid: 10 times
  .OH scavengers, times better than glutathione: 3 times
  scavenging capacity, times better compared to 3-HB monomer, 3-hydroxybutyric acid (3-HBA): 10 times
[1]; compared with 3-hydroxybutyric acid or ascorbic acid
  antioxidant capacity against hydroxyl radicals (in words): more than tenfold higher
[2]
  reversal of hypersensitivity of yeast mutants to hydroxyl radical stress (in words): reversal of hypersensitivity

## COC(=O)CC(C)OC(=O)CC(C)OC(=O)CC(C)O (centres unmarked) [Compound 2]
Shoot tips of Scots pine
  state of Scots pine shoot tip (in words): alive
[1]
  hydroxyl radical scavenging activity (in words): significantly better
  .OH scavengers, times better than ascorbic acid: 10 times
  .OH scavengers, times better than glutathione: 3 times
  scavenging capacity, times better compared to 3-HB monomer, 3-hydroxybutyric acid (3-HBA): 10 times
[2]
  reversal of hypersensitivity of yeast mutants to hydroxyl radical stress (in words): reversal of hypersensitivity

## N[C@@H](CCC(=O)N[C@@H](CS)C(=O)NCC(=O)O)C(=O)O [glutathione, reference compound]
[2]
  reversal of hypersensitivity of yeast mutants to hydroxyl radical stress (in words): reversal of hypersensitivity
